This is an account of results in PubChem BioAssay (NCI).

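Five compound concentrations were applied to cells in 96-well plates for 48 hours; endpoints were derived by simple linear interpolation of the resulting dose-response curve. The concentration for 50% growth inhibition is given as GI50. Definition used: TGI = concentration required for complete inhibition of growth.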

What all share (assay): NCI-60 cell line screen, 48 h
Assay [1] concerns A498 renal.
The subject of assay [2] is M14 melanoma.
Assay [3] relates to OVCAR-8 ovarian.
Assay [4] has as its system NCI-H460 lung.
For assay [5], the system named is SK-MEL-2 melanoma.
Assay [6] relates to OVCAR-4 ovarian.
The test system of assay [7] is ACHN renal.
In assay [8] the test system is SNB-75 CNS.
The test system of assay [9] is MDA-MB-231 breast.

Regarding `Cc1cc(N(CCC#N)CCC#N)ccc1/C=C/C(=O)Nc1ccccc1Cl`, the TGI in [1], in assay [2], in assay [3], in assay [4], in assay [5] and in assay [6] was above 100 µM in each case. The TGI in assay [7] and in assay [8] was above 100 µM each time.
Consider `O=C(O)C(CS)N=Cc1nc(-c2ccccc2)oc1O` (stereo not given), for which the TGI in assay [1], in [2], in assay [3], in assay [4], in assay [5] and in assay [6] was above 100 µM in each case. In addition, the TGI in assay [7] and in [8] was above 100 µM each time.
With `COc1cc2c3c(c1OC)/C(=N/OS(=O)(=O)c1ccc(C)cc1)CC3N(S(=O)(=O)c1ccc(C)cc1)CC2` (stereo not given), the TGI in assay [1], in assay [2], in [3], in assay [4], in assay [6] and in [7] was above 100 µM each time. Moreover, the TGI in [8] is above 100 µM.
With `C1=CC=C2NCCSCCNC3=CC=CC=CC3=NCCSCCN=C2C=C1`, the TGI in assay [1], in assay [2], in assay [3], in assay [4], in assay [5] and in assay [6] was above 100 µM each time. For the same molecule, the TGI in assay [7] and in [8] was above 100 µM each time.
`C(/C=C/N1CCCC1)=C\c1nc(N2CCCC2)c2ccccc2n1`: the TGI in assay [1] is above 100 µM; in assay [2], 33.5 µM; in assay [3] it was above 100 µM; in [4] it was 33.6 µM; in [5], 39.1 µM; in assay [6] it was 27.8 µM. Further, the TGI in [7] was found to be 30.8 µM; in assay [8] it was 31.6 µM.
In the case of `O=C(NOC(=O)c1ccc([N+](=O)[O-])cc1)c1ccc(Cl)cc1`, the TGI in assay [1], in assay [2], in [3], in assay [4], in [5] and in assay [6] was above 100 µM throughout. For the same molecule, the TGI was above 100 µM in assay [7] and 54.6 µM in [8].
Consider `C=C1c2ccccc2N(S(=O)(=O)c2ccc(C)cc2)C12CCCCC2`, for which the TGI in [2], in assay [3], in assay [4], in [5], in assay [6] and in [7] was above 100 µM throughout. The same molecule had a TGI in [8] above 100 µM.
On to `O=C1OC(c2ccc(Cl)c3ccccc23)c2ccccc21` (stereo not given), for which the TGI in [1], in assay [2], in assay [3], in assay [4], in [5] and in assay [6] was above 100 µM in each case. Also, the TGI in assay [7] was above 100 µM; in [8], 51.1 µM.
Take `O=C1[C@H]2ON(c3ccccc3)C(c3cccc([N+](=O)[O-])c3)[C@H]2C(=O)N1c1ccc(Cc2ccc(N3C(=O)[C@@H]4ON(c5ccccc5)C(c5cccc([N+](=O)[O-])c5)[C@@H]4C3=O)cc2)cc1` (stereo not given in full): the TGI was 97.5 µM in assay [1]; 60.8 µM in assay [2]; above 100 µM in assay [3]; above 100 µM in [4]; above 100 µM in assay [5]; above 100 µM in [6]. Moreover, the TGI in [7] and in [8] was above 100 µM in each case.
`C=C(C[N+](C)(C)C)N/N=C/c1oc(-c2ccc(OC)c(OC)c2)c(-c2ccc(OC)c(OC)c2)c1[N+](=O)[O-]`: the TGI in [1] was 82.3 µM; in [2], 48.2 µM; in assay [3] it was 31.4 µM; in assay [4] it was 40.2 µM; in [5], 31.9 µM; in assay [6], 38 µM. The figures for the TGI in assay [7] and in assay [8] were 31.5 µM and 78.2 µM, respectively.
In the case of `CC12O[Te]34OC1(C)C(C)(O3)C2(C)O4`, the TGI in assay [1] was above 8.75 µM; in assay [2], 33.7 µM; in assay [3], 24.4 µM; in assay [4] it was 61.3 µM; in assay [5], 29.8 µM; in [6] it was 27.4 µM. Moreover, the TGI in assay [7] is 27 µM; in assay [8], above 8.75 µM.
For the molecule `CCOC(=O)/N=c1\ssc(Cl)c1Cl`, the GI50 in [2] is 7.44 µM; in assay [9] it was 6.95 µM; in assay [3] it was 19.7 µM; in assay [4] it was 21.3 µM; in [5] it was 12.1 µM; in assay [6] it was 35.5 µM. For the same molecule, the GI50 was 1950 nM in assay [7] and 30.6 µM in assay [8]. Besides, the TGI in assay [2] is above 100 µM; in [9], 28.7 µM; in assay [3] it was 55.1 µM; in [4], 54.3 µM; in assay [5], 60.4 µM; in [6], above 100 µM. Further, the TGI came to 4.37 µM in assay [7] and 87.7 µM in assay [8].
For the molecule `CC(C)(C)c1cc(C(=O)O)c(C(c2ccccc2)c2ccccc2C(=O)O)c(C(=O)O)c1` (stereo not given), the TGI in [2] was above 100 µM; in assay [3], above 100 µM; in assay [4], above 100 µM; in [5] it was above 100 µM; in [6] it was 37.7 µM; in assay [7], 40 µM. This molecule had a TGI in [8] of 42.2 µM.
`C=CCN(N=O)C(=O)ON1C(=O)CCC1=O`: the TGI in assay [1], in assay [2], in [3], in [4], in assay [5] and in assay [6] was above 100 µM each time. The TGI in assay [7] and in assay [8] was above 100 µM each time.
For the molecule `CN1C=C(C(N)=O)C2CC(O)[C@@](NC(=O)CS(N)(=O)=O)(C(=O)O)C2C1` (stereo not given in full), the TGI is 4.96 µM in assay [1]; 2.8 µM in assay [2]; 18.2 µM in [3]; 12.6 µM in [4]; 8.22 µM in assay [5]; 4.15 µM in [6]. Further, the TGI in assay [7] is 97.3 µM; in assay [8], 7.6 µM.
